Measured values reported in patent US5120727A, “Rapamycin dimers” (American Home Products Corporation, priority 1991, dated 1992).

Assays:
[1] = test system: cells from the thymus of normal BALB/c mice; test: comitogen-induced thymocyte proliferation procedure (LAF); assay type: cell-based; settings: PHA and IL-1, 72 hours, tritiated thymidine last six hours
Protocol: Immunosuppresive activity of the compounds of the present invention was evaluated in an in vitro standard pharmacological test procedure to measure lymphocyte proliferation (LAF).
Briefly, cells from the thymus of normal BALB/c mice were cultured for 72 hours with PHA and IL-1 and pulsed with tritiated thymidine during the last six hours. […] Cells are harvested and incorporated; radioactivity is determined. Inhibition of lymphoproliferation is assessed in percent change in counts per minute from non-drug treated controls. The results are expressed by the following ratio: [formula]

[2] = test system: experimental allergic encephalomyelitis model; settings: model for multiple sclerosis; cited from earlier work
[3] = cited from earlier work
adjuvant arthritis model = settings: model for rheumatoid arthritis; cited from earlier work
IGE-like antibodies = settings: in vivo; cited from earlier work
transplant rejection = settings: in vivo; cited from earlier work
Candida albicans = settings: both in vitro and in vivo; cited from earlier work

| Compound | R/*A at 10 nM (relative potency of analogs/rapamycin) [1] | R/*A at 100 nM (relative potency of analogs/rapamycin) [1] | other results |
| --- | --- | --- | --- |
| CO[C@H]1C[C@@H]2CC[C@@H](C)[C@@](O)(O2)C(=O)C(=O)N2CCCC[C@H]2C(=O)O[C@H]([C@H](C)C[C@@H]2CC[C@@H](OC(=O)CCCCC(=O)O[C@@H]3CC[C@@H](C[C@@H](C)[C@@H]4CC(=O)[C@H](C)/C=C(\C)[C@@H](O)[C@@H](OC)C(=O)[C@H](C)C[C@H](C)/C=C/C=C/C=C(\C)[C@@H](OC)C[C@@H]5CC[C@@H](C)[C@@](O)(O5)C(=O)C(=O)N5CCCC[C@H]5C(=O)O4)C[C@H]3OC)[C@H](OC)C2)CC(=O)[C@H](C)/C=C(\C)[C@@H](O)[C@@H](OC)C(=O)[C@H](C)C[C@H](C)/C=C/C=C/C=C/1C [Example 1, Rapamycin-42,42'-diester with hexanedioic acid] | 0.95 | 1.0 | – |
| CO[C@H]1C[C@@H]2CC[C@@H](C)[C@@](O)(O2)C(=O)C(=O)N2CCCC[C@H]2C(=O)O[C@H]([C@H](C)C[C@@H]2CC[C@@H](OC(=O)CCCCCC(=O)O[C@@H]3CC[C@@H](C[C@@H](C)[C@@H]4CC(=O)[C@H](C)/C=C(\C)[C@@H](O)[C@@H](OC)C(=O)[C@H](C)C[C@H](C)/C=C/C=C/C=C(\C)[C@@H](OC)C[C@@H]5CC[C@@H](C)[C@@](O)(O5)C(=O)C(=O)N5CCCC[C@H]5C(=O)O4)C[C@H]3OC)[C@H](OC)C2)CC(=O)[C@H](C)/C=C(\C)[C@@H](O)[C@@H](OC)C(=O)[C@H](C)C[C@H](C)/C=C/C=C/C=C/1C [Example 2, Rapamycin-42,42'-diester with heptanedioic acid] | 0.28 | 0.96 | – |
| CO[C@H]1C[C@@H]2CC[C@@H](C)[C@@](O)(O2)C(=O)C(=O)N2CCCC[C@H]2C(=O)O[C@H]([C@H](C)C[C@@H]2CC[C@@H](OC(=O)CCCCCCC(=O)O[C@@H]3CC[C@@H](C[C@@H](C)[C@@H]4CC(=O)[C@H](C)/C=C(\C)[C@@H](O)[C@@H](OC)C(=O)[C@H](C)C[C@H](C)/C=C/C=C/C=C(\C)[C@@H](OC)C[C@@H]5CC[C@@H](C)[C@@](O)(O5)C(=O)C(=O)N5CCCC[C@H]5C(=O)O4)C[C@H]3OC)[C@H](OC)C2)CC(=O)[C@H](C)/C=C(\C)[C@@H](O)[C@@H](OC)C(=O)[C@H](C)C[C@H](C)/C=C/C=C/C=C/1C [Example 3, Rapamycin-42,42'-diester with octanedioic acid] | 0.59 | 1.0 | – |
| CO[C@H]1C[C@@H]2CC[C@@H](C)[C@@](O)(O2)C(=O)C(=O)N2CCCC[C@H]2C(=O)O[C@H]([C@H](C)C[C@@H]2CC[C@@H](O)[C@H](OC)C2)CC(=O)[C@H](C)/C=C(\C)[C@@H](O)[C@@H](OC)C(=O)[C@H](C)C[C@H](C)/C=C/C=C/C=C/1C [Rapamycin] | – | – | effect in the experimental allergic encephalomyelitis model [2]: effective; antitumor activity ([3]; alone): antitumor activity; antitumor activity in combination ([3]; in combination with picibanil): antitumor activity; effect in the adjuvant arthritis model (adjuvant arthritis model): effective; inhibition of the formation of IGE-like antibodies (IGE-like antibodies): effectively inhibited; inhibiting transplant rejection (transplant rejection): effective in inhibiting transplant rejection; antifungal activity (Candida albicans): antifungal activity |
| CO[C@H]1C[C@@H]2CC[C@@H](C)[C@@](O)(O2)C(=O)C(=O)N2CCCC[C@H]2C(=O)O[C@H]([C@H](C)C[C@@H]2CC[C@@H](OC(=O)CCCCCCCC(=O)O[C@@H]3CC[C@@H](C[C@@H](C)[C@@H]4CC(=O)[C@H](C)/C=C(\C)[C@@H](O)[C@@H](OC)C(=O)[C@H](C)C[C@H](C)/C=C/C=C/C=C(\C)[C@@H](OC)C[C@@H]5CC[C@@H](C)[C@@](O)(O5)C(=O)C(=O)N5CCCC[C@H]5C(=O)O4)C[C@H]3OC)[C@H](OC)C2)CC(=O)[C@H](C)/C=C(\C)[C@@H](O)[C@@H](OC)C(=O)[C@H](C)C[C@H](C)/C=C/C=C/C=C/1C [Example 4, Rapamycin-42,42'-diacid with nonanedioic acid] | 1.10 | 1.0 | – |
